# Source: patent publication US12343326B2, “Psychoactive medicines and their use for treating psychiatric and neurological conditions and disorders” (Transcend Therapeutics, Inc., priority 2021, dated 2025)
# Experiments:
# rats = experiment: Open field test (OFT); assay type: in vivo, rat; details: for time spent in the center of the open field vs. vehicle: single dose 5 or 15 mg/kg IP (text), 5-30 mg/kg (FIG. 11A), 30 minutes before testing
# Description: This behavioral assay, also widely used as an anxiety paradigm, capitalizes on a rodent's innate fear of brightly lit open spaces, which are assumed to induce fear or anxiety. Rodents spend more time hugging the walls of the open field during the test, and these effects correlate to underlying brain regions and mechanisms.
# Method: Consecutive beam breaks and/or video-tracking of time spent in the center versus periphery of the open field are measured. Also measured are parameters such as distance traveled and ambulatory activity (horizontal and vertical) for the duration of the test session.
# The open field test (OFT) capitalizes on a rodent's innate fear of open spaces to assess anxiety-like behavior. More time spent in the center of an open field reflects an anxiolytic (anti-anxiety) effect.
# Locomotor activity was also measured in the OFT.
# To investigate whether MBDB has an anti-anxiety (anxiolytic) effect, rats were dosed with MBDB (0.5-30 mg/kg, IP) or vehicle (saline) and 30-minutes later were tested in the open field for 30 minutes. This anxiety test capitalizes on a rodents' innate fear of wide-open spaces and propensity to hug the walls when placed into the open field. Therefore, a drug that increases the time spent in the center of the open field has anxiolytic activity and predicts utility for treating anxiety in humans.
# 168 GPCRs = experiment: β-arrestin based GPCR screen (PathHunter / GPCRmax), agonist mode; assay type: cell-based
# Description: For agonist determination, cells were incubated with sample to induce response. […] Vehicle concentration was 1%.
# 5HT2A receptor = target: T1, 5HT2A receptor (Homo sapiens, UniProt P28223); experiment: GPCRmax screen, agonist mode; assay type: cell-based
# T1 construct: beta-galactosidase enzyme fragment (PathHunter complementation tag); host or cells: PathHunter cell lines
# T1 sequence (P28223 whole entry, the tested form may be a part): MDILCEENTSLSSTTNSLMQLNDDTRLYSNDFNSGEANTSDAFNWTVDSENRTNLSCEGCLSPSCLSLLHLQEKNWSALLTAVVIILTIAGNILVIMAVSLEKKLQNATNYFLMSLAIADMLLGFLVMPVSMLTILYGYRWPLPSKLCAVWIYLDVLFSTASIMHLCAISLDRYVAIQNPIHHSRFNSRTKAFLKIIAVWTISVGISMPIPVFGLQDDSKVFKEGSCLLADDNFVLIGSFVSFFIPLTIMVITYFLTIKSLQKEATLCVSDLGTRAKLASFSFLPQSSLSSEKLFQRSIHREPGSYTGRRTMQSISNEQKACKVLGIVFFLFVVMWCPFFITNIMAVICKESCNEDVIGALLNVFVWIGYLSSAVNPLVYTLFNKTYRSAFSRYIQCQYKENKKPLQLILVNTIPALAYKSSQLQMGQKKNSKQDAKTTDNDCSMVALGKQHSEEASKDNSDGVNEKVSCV
# 5HT2C receptor [1] = target: T2, 5HT2C receptor (Homo sapiens, UniProt P28335); experiment: GPCRmax screen, agonist mode; assay type: cell-based
# T2 construct: beta-galactosidase enzyme fragment (PathHunter complementation tag); host or cells: PathHunter cell lines
# T2 sequence (P28335 33-458): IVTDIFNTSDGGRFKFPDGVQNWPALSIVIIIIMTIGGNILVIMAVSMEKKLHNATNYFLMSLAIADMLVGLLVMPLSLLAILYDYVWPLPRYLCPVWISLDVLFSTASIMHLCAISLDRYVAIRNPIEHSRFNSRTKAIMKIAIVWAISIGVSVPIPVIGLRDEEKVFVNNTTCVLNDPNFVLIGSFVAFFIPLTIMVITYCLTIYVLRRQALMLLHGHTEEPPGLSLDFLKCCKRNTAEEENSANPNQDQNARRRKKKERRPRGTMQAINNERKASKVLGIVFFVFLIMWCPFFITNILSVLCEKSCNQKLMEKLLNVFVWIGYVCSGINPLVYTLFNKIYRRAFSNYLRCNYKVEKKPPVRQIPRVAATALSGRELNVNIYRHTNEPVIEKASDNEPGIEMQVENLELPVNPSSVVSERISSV
# 5HT2C receptor [2] = target: T2, 5HT2C receptor; experiment: GPCRmax screen, antagonist mode; assay type: cell-based
# [3] = tested on: gene expression in amygdala, frontal cortex, hippocampus; experiment: RNA-sequencing of brain areas after a single dose; assay type: in vivo, rat; details: 10 mg/kg IP each
# [4] = tested on: myelin basic protein (MBP); experiment: Immunohistochemistry of myelin basic protein; assay type: in vivo, rat; details: 10 mg/kg IP, 24 h
# Description: Immunohistochemistry: The in-life portion of the study was conducted at WuXi Apptec (Cranbury, NJ). Sectioning and staining of brains took place at Neuroscience Associates (NSA, Knoxville, TN). […] Brains were post-fixed in PFA before shipment to NSA for processing and staining. Hemisected brains were mounted, sectioned and stained using standard protocols with myelin-basic protein primary antibody (MBP SMI-99, 1:5000, Biolegend, San Diego, CA) and anti-mouse biotinylated secondary antibody (BA-2001, Vector Laboratories, Newark, CA). Slides were imaged using a Huron Digital Pathology TissueScope LE120 whole slide scanning system. 20× objective was used with a 0.4 μm/pixel resolution.
# C57BL/6J mice = experiment: Mouse head-twitch response (HTR) test; assay type: in vivo; details: i.p., any dose tested, HTR measured for 10 minutes
# Description: Head twitch response (HTR) was evaluated using C57BL/6J mice (ages 7-10 weeks), Mice were ear tagged at least three days after arrival to the animal facility and allowed to rest for at least three days before behavioral testing. Small magnets (SuperMagnetMan—N45 magnet 3 mm diameter, 0.5 mm thickness) were glued to ear tags (Stoelting—La Pias Aluminum Ear Tags) at least two days before mice were ear tagged. The experimental setup was adapted from Gonzales-Maeso (de la Fuente Revenga et al., 2019) and Kwan (Jefferson et al., 2022; Savalia et al., 2021), including experimental apparatus and MATLAB code for analysis.
# Doses were randomly assigned, and age-matched controls were injected with vehicle and randomly interspersed with drug conditions. At least three animals per sex were used for each drug dose and condition. If animals were used in multiple HTR experiments, experimental sessions took place at least one week apart. Two animals were run at a time. Immediately after i.p. injection of psychedelic or entactogen drug, animals were placed in separate plastic boxes within a larger chamber (Home Depot—28 in. W×32 in. H×21.5 in. D), and HTR was measured for 10 minutes. A small lamp was placed in the back of the larger chamber, and a high-speed camera (Basler—Aca 1920-155 μm) was suspended from the ceiling to record video of the animals in the plastic boxes. […]
# [5] = cited from earlier work
smiles,measurement,setting,value
"CNC(C)C(=O)c1ccc2c(c1)OCO2 (centres unmarked) [methylone, 3,4-methylenedioxy-N-methylcathinone]",locomotor activity (OFT) vs. vehicle,rats; methylone 5 mg/kg,no effect
same,locomotor activity (OFT) vs. vehicle,rats; methylone 15 or 30 mg/kg,significant increase in locomotor activity
same,time spent in the center of the open field vs. vehicle,rats,significantly increases the time spent in the center
same,time spent in the center of the open field vs. vehicle,rats; listed as Methylone,significantly increased center time
same,agonist activity at any of the 168 GPCRs (criterion >30% activity),168 GPCRs; 1 and 10 micromolar,did not meet criteria for agonist or antagonist activity
same,% Activity,"168 GPCRs; DRD2S, Agonist mode, 10 uM",0.6%
same,% Activity,"168 GPCRs; DRD2S, Agonist, 1 uM",0%
same,% Activity,"168 GPCRs; NPSR1b, Agonist mode, 10 uM",4.8%
same,% Activity,"168 GPCRs; NPSR1b, Agonist, 1 uM",−1.3%
same,agonist % activity,"5HT2A receptor; 1 or 10 mM, threshold 30%",no agonist or antagonist activity
same,activity at 10 µM,"5HT2A receptor; HTR2A, Agonist mode, 10 uM",1.4%
same,activity at 1 µM,"5HT2A receptor; HTR2A, Agonist, 1 uM",-0.1%
same,agonist % activity,"5HT2C receptor [1]; 1 or 10 mM, threshold 30%",no agonist or antagonist activity
same,activity at 10 µM,"5HT2C receptor [1]; HTR2C, Agonist mode, 10 uM",3.7%
same,activity at 1 µM,"5HT2C receptor [1]; HTR2C, Agonist, 1 uM",1.4%
same,antagonist activity (% inhibition),"5HT2C receptor [2]; 1 or 10 mM, threshold 50%",no agonist or antagonist activity
same,activity at 10 µM,"5HT2C receptor [2]; HTR2C, Antagonist mode, 10 uM",24.2%
same,activity at 1 µM,"5HT2C receptor [2]; HTR2C, Antagonist, 1 uM",21.1%
same,"genes regulated by methylone that are also regulated by MDMA, amygdala",[3],87%
same,"MBP expression, basolateral nucleus of the amygdala, vs. vehicle",[4],significant reduction in MBP
same,"MBP expression, central nucleus of the amygdala, vs. vehicle",[4],significant reduction in MBP
same,"MBP expression, cortex (control region)",[4],No change in MBP
same,head-twitch behaviors,C57BL/6J mice,no effect on head-twitch behaviors at any dose tested
same,head-twitch behaviors,C57BL/6J mice; listed as Methylone,no hallucinogenic activity
same,time to peak brain and serum concentration,"[5]; rats, intraperitoneal administration",15 to 30 min
same,half-life shorter than MDMA,[5]; relative to MDMA,> 50%
